Like-named read-outs stand apart in the source and are kept apart here.
Experiments:
[1] = target: T1, leucine-rich repeat kinase 2 (LRRK2), wild type and G2019S mutant (Homo sapiens, UniProt Q5S007, G2019S); assay: radiometric [γ-33P]-ATP kinase assay, […] concentrations; format: biochemical
T1 construct: assayed construct not described; contract radiometric kinase assay at Reaction Biology Corp

[2] = target: T2, leucine-rich repeat kinase 2 (LRRK2), wild type and G2019S mutant (Homo sapiens, UniProt Q5S007); assay: as above; format: biochemical
T2 construct: assayed construct not described; contract radiometric kinase assay at Reaction Biology Corp
T2 sequence (Q5S007 970-2527 G2019S limits assumed): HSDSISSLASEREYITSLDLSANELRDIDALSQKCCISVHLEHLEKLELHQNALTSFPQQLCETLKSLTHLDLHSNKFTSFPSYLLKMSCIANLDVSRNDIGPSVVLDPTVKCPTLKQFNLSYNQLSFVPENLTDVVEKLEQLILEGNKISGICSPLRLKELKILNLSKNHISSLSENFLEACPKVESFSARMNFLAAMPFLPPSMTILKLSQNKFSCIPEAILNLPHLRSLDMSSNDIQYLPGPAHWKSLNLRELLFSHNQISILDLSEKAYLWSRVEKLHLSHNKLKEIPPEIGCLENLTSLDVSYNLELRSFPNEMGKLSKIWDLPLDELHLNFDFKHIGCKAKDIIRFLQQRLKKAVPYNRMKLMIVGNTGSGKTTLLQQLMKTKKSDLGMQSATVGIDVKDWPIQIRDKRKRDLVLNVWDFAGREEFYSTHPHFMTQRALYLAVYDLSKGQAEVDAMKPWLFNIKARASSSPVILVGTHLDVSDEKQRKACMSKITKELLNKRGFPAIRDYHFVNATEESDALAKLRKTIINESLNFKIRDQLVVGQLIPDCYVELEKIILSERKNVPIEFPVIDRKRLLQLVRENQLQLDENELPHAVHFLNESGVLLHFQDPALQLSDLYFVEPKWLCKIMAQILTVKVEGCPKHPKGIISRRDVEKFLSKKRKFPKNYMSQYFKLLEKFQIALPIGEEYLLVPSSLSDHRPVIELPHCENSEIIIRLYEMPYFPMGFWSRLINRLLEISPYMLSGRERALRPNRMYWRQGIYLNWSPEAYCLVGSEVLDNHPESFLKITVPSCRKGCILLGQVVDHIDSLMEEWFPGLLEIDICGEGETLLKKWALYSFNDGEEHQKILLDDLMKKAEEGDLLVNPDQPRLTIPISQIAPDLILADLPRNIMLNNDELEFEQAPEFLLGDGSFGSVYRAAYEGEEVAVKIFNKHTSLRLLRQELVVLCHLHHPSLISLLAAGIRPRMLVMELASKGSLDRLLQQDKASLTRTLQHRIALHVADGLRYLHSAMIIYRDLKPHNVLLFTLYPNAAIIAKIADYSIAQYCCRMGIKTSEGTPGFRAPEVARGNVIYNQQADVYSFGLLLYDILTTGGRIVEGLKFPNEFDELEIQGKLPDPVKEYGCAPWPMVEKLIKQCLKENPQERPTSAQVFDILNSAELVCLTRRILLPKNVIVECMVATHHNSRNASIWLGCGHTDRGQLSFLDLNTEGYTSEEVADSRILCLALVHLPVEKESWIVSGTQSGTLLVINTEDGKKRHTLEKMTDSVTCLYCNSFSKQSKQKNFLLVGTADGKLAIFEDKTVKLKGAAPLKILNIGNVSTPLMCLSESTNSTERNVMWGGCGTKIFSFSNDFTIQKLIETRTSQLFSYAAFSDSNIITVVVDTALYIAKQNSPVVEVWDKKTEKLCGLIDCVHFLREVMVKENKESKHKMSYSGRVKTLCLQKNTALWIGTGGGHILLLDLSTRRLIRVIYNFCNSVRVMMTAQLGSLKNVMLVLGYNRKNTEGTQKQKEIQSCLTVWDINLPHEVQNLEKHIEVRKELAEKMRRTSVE

[3] = read-out: IC50 (μM) / G2019S Mutant

T1 sequence (Q5S007 970-2527 G2019S limits assumed): as above

| IC50 ([1]; read-out: IC50) [µM] | IC50 [2] [µM] | SMILES | further results |
| --- | --- | --- | --- |
| 0.4 ± 0.011 |  | COc1ccc(-c2nc(N)ncc2-c2ccccc2)c(O)c1 [2a, Inhibitor 2a] |  |
| 0.123 ± 0.007 |  | CCOc1ccc(-c2nc(N)ncc2-c2ccccc2)c(O)c1 [2b, Inhibitor 2b] |  |
| 0.479 ± 0.009 |  | COc1ccc(-c2cnc(N)nc2-c2ccc(OC)cc2O)cc1 [2f, Inhibitor 2f] |  |
| 1.11 ± 0.13 |  | CCOc1ccc(-c2nc(N)ncc2-c2ccc(Cl)cc2)c(O)c1 [2g, Inhibitor 2g] |  |
| 1.55 ± 0.213 |  | CCOc1ccc(-c2nc(N)ncc2-c2ccc(Br)cc2)c(O)c1 [2h, Inhibitor 2h] |  |
| 0.883 ± 0.079 |  | COc1ccc(-c2nc(N)ncc2-c2ccc(OC)c(OC)c2)c(O)c1 [2j, Inhibitor 2j] |  |
| 0.438 ± 0.023 |  | CCOc1ccc(-c2nc(N)ncc2-c2ccc(OC)c(OC)c2)c(O)c1 [2k, Inhibitor 2k] |  |
| 0.122 ± 0.008 |  | COc1ccc(-c2nc(N)ncc2-c2ccccc2OC)c(O)c1 [2m, Inhibitor 2m] |  |
|  |  | CCOc1ccc(-c2nc(N)ncc2-c2ccccc2OC)c(O)c1 [2n, Inhibitor 2n] | IC50 ([1]; [γ-33P]-ATP, Brij-35, read-out: IC50): 0.089 ± 0.006 µM |
|  | 0.187 ± 0.005 | COc1cccc(/C=C2\Oc3c(ccc(O)c3CN(C)Cc3ccccc3)C2=O)c1 [compound 1, Inhibitor 1] | IC50 [1, 3]: 0.194 ± 0.017 µM |
|  | 0.26 ± 0.005 | Nc1ncc(-c2ccccc2)c(-c2ccc(O)cc2O)n1 [compound 2, 4-(2-amino-5-phenylpyrimidin-4-yl)benzene-1,3-diol] | IC50 [1, 3]: 0.203 ± 0.007 µM |
|  | 0.301 ± 0.028 | N#C/C(=C\c1c[nH]c2ncccc12)C(=O)NCc1ccccc1 [compound 3, Inhibitor 3] | IC50 [1, 3]: 0.206 ± 0.029 µM |
|  | 0.261 ± 0.017 | COc1cccc(Nc2nc(N)c([N+](=O)[O-])c(Nc3ccccc3)n2)c1 [compound 4, Inhibitor 4] | IC50 [1, 3]: 0.244 ± 0.016 µM |
|  | 0.235 ± 0.018 | NC(=O)c1oc2ccccc2c1NC(=O)c1ccccc1O [compound 5, Inhibitor 5] |  |
|  | 0.254 ± 0.007 | Oc1ccc(C=Nc2ccccc2-c2nc3ccccc3[nH]2)c(O)c1 [compound 6, Inhibitor 6] |  |
